Reference: ChEMBL document CHEMBL3763077, “Discovery of pyrrolospirooxindole derivatives as novel cyclin dependent kinase 4 (CDK4) inhibitors by catalyst-free, green approach” (Eur J Med Chem, 2016)
Calls of active or inactive are those of the source. The calls are words filed in the database; no cut-off is given here.

Assays:
HT-29 = experiment: Cytotoxicity against human HT-29 cells assessed as cell growth inhibition after 48 hrs by MTT assay; type: functional, cell-based; details: HT-29, 48 h
A549 = experiment: Cytotoxicity against human A549 cells assessed as cell growth inhibition after 48 hrs by MTT assay; type: functional, cell-based; details: A549, 48 h
[1] = Cytotoxicity against human DU145 cells assessed as cell growth inhibition after 48 hrs by MTT assay; type: functional, cell-based; details: DU-145, 48 h
HeLa = experiment: Cytotoxicity against human HeLa cells assessed as cell growth inhibition after 48 hrs by MTT assay; type: functional, cell-based
MDA-MB-231 = experiment: Cytotoxicity against human MDA-MB-231 cells assessed as cell growth inhibition after 48 hrs by MTT assay; type: functional, cell-based; details: MDA-MB-231, 48 h
DU-145 [2] = experiment: Change in mitochondrial membrane potential in human DU145 cells at 1 uM after 48 hrs by JC-1 staining based flow cytometry (reference value: 95.6%); type: functional
[3] = Cell cycle arrest in human DU145 cells assessed as accumulation at G2/M phase at 1 uM after 48 hrs by propidium iodide staining based flow cytometry (reference value: 5.96 %); type: functional; details: DU-145
[4] = Up regulation of Kip1/p27 expression in human DU145 cells at 1 to 2 uM after 48 hrs by Western blot analysis; type: functional, cell-based; details: DU-145
DU-145 [5] = experiment: Induction of apoptosis in human DU145 cells assessed as viable cells at 1 uM after 48 hrs by annexin V-FITC/PI staining based flow cytometry (reference value: 95.57 %); type: functional; details: DU-145, 48 h, read-out: Activity
[6] = Cell cycle arrest in human DU145 cells assessed as accumulation at S phase at 1 uM after 48 hrs by propidium iodide staining based flow cytometry (reference value: 1.59 %); type: functional; details: DU-145
DU-145 [7] = experiment: Induction of apoptosis in human DU145 cells assessed as early apoptotic cells at 2 uM after 48 hrs by annexin V-FITC/PI staining based flow cytometry (reference value: 2.13 %); type: functional
[8] = Cell cycle arrest in human DU145 cells assessed as accumulation at G0/G1 phase at 1 uM after 48 hrs by propidium iodide staining based flow cytometry (reference value: 81.67 %); type: functional; details: DU-145
[9] = Up regulation of Cip1/p21 expression in human DU145 cells at 1 to 2 uM after 48 hrs by Western blot analysis; type: functional, cell-based; details: DU-145
[10] = Cell cycle arrest in human DU145 cells assessed as accumulation at sub G1 phase at 1 uM after 48 hrs by propidium iodide staining based flow cytometry (reference value: 8.20 %); type: functional; details: DU-145
DU-145 [11] = experiment: Induction of apoptosis in human DU145 cells assessed as late apoptotic cells at 1 uM after 48 hrs by annexin V-FITC/PI staining based flow cytometry (reference value: 1.63 %); type: functional
[12] = Cell cycle arrest in human DU145 cells assessed as accumulation at S phase at 2 uM after 48 hrs by propidium iodide staining based flow cytometry (reference value: 1.59 %); type: functional; details: DU-145
[13] = Cell cycle arrest in human DU145 cells assessed as accumulation at G0/G1 phase at 2 uM after 48 hrs by propidium iodide staining based flow cytometry (reference value: 81.67 %); type: functional; details: DU-145
DU-145 [14] = experiment: Induction of apoptosis in human DU145 cells at assessed as early apoptotic cells 1 uM after 48 hrs by annexin V-FITC/PI staining based flow cytometry (reference value: 2.13 %); type: functional
DU-145 [15] = experiment: Induction of apoptosis in human DU145 cells assessed as necrotic cells at 2 uM after 48 hrs by annexin V-FITC/PI staining based flow cytometry (reference value: 0.67 %); type: functional
DU-145 [16] = experiment: Change in mitochondrial membrane potential in human DU145 cells at 2 uM after 48 hrs by JC-1 staining based flow cytometry (reference value: 95.6%); type: functional
DU-145 [17] = experiment: Induction of apoptosis in human DU145 cells assessed as necrotic cells at 1 uM after 48 hrs by annexin V-FITC/PI staining based flow cytometry (reference value: 0.67 %); type: functional
[18] = Cell cycle arrest in human DU145 cells assessed as accumulation at G2/M phase at 2 uM after 48 hrs by propidium iodide staining based flow cytometry (reference value: 5.96 %); type: functional; details: DU-145
[19] = Cell cycle arrest in human DU145 cells assessed as accumulation at sub G1 phase at 2 uM after 48 hrs by propidium iodide staining based flow cytometry (reference value: 8.20 %); type: functional; details: DU-145
[20] = Down regulation of CDK4 expression in human DU145 cells at 1 to 2 uM after 48 hrs by Western blot analysis; type: functional, cell-based; details: DU-145
DU-145 [21] = experiment: Induction of apoptosis in human DU145 cells assessed as viable cells at 2 uM after 48 hrs by annexin V-FITC/PI staining based flow cytometry (reference value: 95.57 %); type: functional; details: DU-145, 48 h, read-out: Activity
DU-145 [22] = experiment: Induction of apoptosis in human DU145 cells assessed as late apoptotic cells at 2 uM after 48 hrs by annexin V-FITC/PI staining based flow cytometry (reference value: 1.63 %); type: functional

O=C1Nc2c(F)cccc2C12Nc1ccccc1-n1cccc12 (stereo not given)
IC50 (HT-29): 12.7 µM
IC50 (A549): 11.3 µM
IC50 [1]: 12.7 µM
IC50 (HeLa): 12.4 µM
IC50 (MDA-MB-231): 15.9 µM

O=C1Nc2ccc(Cl)cc2C12Nc1ccccc1-n1cccc12 (stereo not given)
IC50 (HT-29): 11 µM
IC50 (A549): 4.81 µM
IC50 [1]: 4.79 µM
IC50 (HeLa): 4.88 µM
IC50 (MDA-MB-231): 26.3 µM

O=C1N(Cc2ccc3c(c2)OCO3)c2ccccc2C12Nc1ccccc1-n1cccc12 (stereo not given)
IC50 (HT-29): 15.1 µM
IC50 (A549): 7.59 µM
IC50 [1]: 3.98 µM
IC50 (HeLa): 4.53 µM
IC50 (MDA-MB-231): 30 µM

COc1cccc2c1C(=O)c1c(O)c3c(c(O)c1C2=O)C[C@@](O)(C(=O)CO)C[C@@H]3O[C@H]1C[C@H](N)[C@H](O)[C@H](C)O1 [DOXORUBICIN]
IC50 (HT-29): 1.16 µM
IC50 (A549): 1.06 µM
IC50 [1]: 1.82 µM
IC50 (MDA-MB-231): 1.67 µM

COc1ccc2c(c1)C1(Nc3ccccc3-n3cccc31)C(=O)N2 (stereo not given)
IC50 (HT-29): 14.7 µM
IC50 (A549): 13.8 µM
IC50 [1]: 11 µM
IC50 (HeLa): 14.8 µM
IC50 (MDA-MB-231): 15.7 µM

Cc1ccc2c(c1)C1(Nc3ccccc3-n3cccc31)C(=O)N2 (stereo not given)
IC50 (HT-29): 14.5 µM
IC50 (A549): 13.5 µM
IC50 [1]: 12.5 µM
IC50 (HeLa): 11.2 µM
IC50 (MDA-MB-231): 22.1 µM

O=C1N(Cc2ccccc2)c2ccc(Br)cc2C12Nc1ccccc1-n1cccc12 (stereo not given)
IC50 (HT-29): 18.1 µM
IC50 (A549): 16.6 µM
IC50 [1]: 11.2 µM
IC50 (HeLa): 21 µM
IC50 (MDA-MB-231): 23.7 µM

O=C1N(Cc2ccccc2)c2ccc(Cl)cc2C12Nc1ccccc1-n1cccc12 (stereo not given)
IC50 (HT-29): 19 µM
IC50 (A549): 4.79 µM
IC50 [1]: 4.71 µM
IC50 (HeLa): 4.86 µM
IC50 (MDA-MB-231): 26.6 µM

O=C1Nc2ccc(Br)cc2C12Nc1ccccc1-n1cccc12 (stereo not given)
IC50 (HT-29): 17 µM
IC50 (A549): 4.9 µM
IC50 [1]: 3.98 µM
IC50 (HeLa): 16.4 µM
IC50 (MDA-MB-231): 29.7 µM

O=C1Nc2ccc([N+](=O)[O-])cc2C12Nc1ccccc1-n1cccc12 (stereo not given)
IC50 (HT-29): 15.6 µM
IC50 (A549): 16.1 µM
IC50 [1]: 22.7 µM
IC50 (HeLa): 12.9 µM
IC50 (MDA-MB-231): 17.4 µM

O=C1Nc2ccc(F)cc2C12Nc1ccccc1-n1cccc12 (stereo not given)
IC50 (HT-29): 15.8 µM
IC50 (A549): 23.4 µM
IC50 [1]: 12.7 µM
IC50 (HeLa): 15.1 µM
IC50 (MDA-MB-231): 31.4 µM

O=C1Nc2ccccc2C12Nc1ccccc1-n1cccc12 (stereo not given)
IC50 (HT-29): 4.11 µM
IC50 (A549): 7.1 µM
IC50 [1]: 6.03 µM
IC50 (HeLa): 4.57 µM
IC50 (MDA-MB-231): 8.84 µM

O=C1N(Cc2ccc3c(c2)OCO3)c2ccc(Cl)cc2C12Nc1ccccc1-n1cccc12 (stereo not given)
Activity (DU-145 [2]): 87.7%
Activity [3]: 4.2%
Activity [4]: Active
viability at 1 µM (DU-145 [5]): 60.6%
Activity [6]: 1.21%
IC50 (HT-29): 1.63 µM
Activity (DU-145 [7]): 27.36%
IC50 (A549): 2.11 µM
Activity [8]: 85.2%
IC50 [1]: 1.16 µM
Activity [9]: Active
Activity [10]: 6.98%
Activity (DU-145 [11]): 15.42%
Activity [12]: 2.94%
Activity [13]: 58.8%
Activity (DU-145 [14]): 21.95%
IC50 (HeLa): 2.45 µM
Activity (DU-145 [15]): 1.63%
Activity (DU-145 [16]): 72.2%
Activity (DU-145 [17]): 2%
Activity [18]: 4.46%
Activity [19]: 29.1%
Activity [20]: Active
viability at 2 µM (DU-145 [21]): 55%
Activity (DU-145 [22]): 16.03%
IC50 (MDA-MB-231): 2.34 µM

O=C1Nc2ccc(I)cc2C12Nc1ccccc1-n1cccc12 (stereo not given)
IC50 (HT-29): 19 µM
IC50 (A549): 22.4 µM
IC50 [1]: 15.7 µM
IC50 (HeLa): 16.7 µM
IC50 (MDA-MB-231): 27.1 µM

O=C1N(Cc2ccccc2)c2ccccc2C12Nc1ccccc1-n1cccc12 (stereo not given)
IC50 (HT-29): 17.4 µM
IC50 (A549): 17 µM
IC50 [1]: 13.2 µM
IC50 (HeLa): 20 µM
IC50 (MDA-MB-231): 26.2 µM
